Test results reported in patent US6297230A, “Cyanoaziridines for treating cancer” (priority 2000, dated 2001).
Values after ≈ are worked out from the molar mass of the structure shown. “Also recorded” adds a separate entry of the source.

Legend:
8226/S myeloma cells = assay: MTT growth inhibition, parental 8226 myeloma cells; format: cell-based, human; settings: for IC50: Homo sapiens, Table 5, Sensitive (parental) 8226, read-out: IC50
Outline: (§1)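 Parental 8226/S and imexon-resistant 8226/I-R myeloma cells (selected with imexon up to 3.25 mg/mL) were exposed to drug continuously for 10 days at 37 °C. Viability was measured by MTT absorbance at 570 nm relative to untreated controls. IC50 was taken as the concentration giving 50% growth inhibition, from at least 2 assays.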

[1] = tested on: L-1210 leukemia cells (sensitive); assay: MTT growth inhibition, sensitive L-1210 leukemia cells; format: cell-based, mouse; settings: Mus musculus, L1210, 192 h; Sensitive L-1210; drug continuously present 8 days; read-out: IC50
Method: Tumors are disaggregated into single cell suspensions using mechanical, hypoosmotic, and/or enzymatic (trypsin) methods. The cells are plated at a concentration of 3-5×10^4 per […] well into plastic 96-well plates. Growth medium containing 5-10% (vol/vol) heat-inactivated fetal bovine serum and penicillin/streptomycin (both […]) are added prior to incubation at 37° C. for 6 days. Afterwards the medium containing the drug is removed, the cells are centrifuged in fresh medium or phosphate-buffered saline (pH 7.4). A tetrazolium dye, […]-2,5-diphenyl tetrazolium (MTT), is then added. (Mossman, T., J Immunol 65:55-63, 1983.) This dye forms a colored formazan product upon activation by mitochondrial reductases in viable cells. Typically, the formazan product is solubilized in acid-propanol or DMSO. The intensity of the color is proportional to viable cell numbers and this is quantitated by spectrophotometric absorbance at 570 nm on a micro ELISA plate reader. The results are calibrated in % control absorbance from untreated tumor cells. (Alley, et al., Cancer Res 48:589-601, 1988.) […]
Murine L-1210 Leukemia Cells were first described by Law, et al. from a female DBA/2 mouse exposed to topical methylcholanthrene. (Law, et al., J Natl Cancer Inst 10:179-192, 1949.) The cells represent a lymphocytic lineage and are highly tumorigenic in syngeneic DBA/2 mice, producing lethality typically 10-14 days after inoculation. This cell line has been used extensively to characterize the antitumor activity of chemotherapeutic agents. (Goldin, et al., Cancer Res (Cancer Chemotherapy Screening Data IX) 21:27-92, 1961.) The L-1210 cells have a model 40-41 chromosomes and a very high plating efficiency in suspension cultures in vitro.
(§2) *Drug continuously present for 8 days; IC50 measured by MTT dye

8226/I-R myeloma cells = assay: MTT growth inhibition, imexon-resistant 8226 myeloma cells; format: cell-based, human; settings: for IC50: Homo sapiens, imexon-resistant 8226, read-out: IC50; for IC50 / Fold Resistance of IC50 R/IC50 's: Table 5; for Fold Resistance of IC50 R/IC50 's: imexon-resistant vs sensitive 8226; for Cross-resistance with imexon: 8226 imexon-resistant vs parental
Outline: as §1

[2] = tested on: L-1210 MDR leukemia cells; assay: MTT growth inhibition, multidrug-resistant L-1210 leukemia cells; format: cell-based, mouse; settings: for Fold Resistance of IC50 's (MDR/S): L-1210 MDR vs sensitive, 11520 min; for IC50: Mus musculus, L1210, 192 h, MDR L-1210, drug continuously present 8 days, read-out: IC50
Method: Tumors are disaggregated into single cell suspensions using mechanical, hypoosmotic, and/or enzymatic (trypsin) methods. The cells are plated at a concentration of 3-5×10^4 per […] well into plastic 96-well plates. Growth medium containing 5-10% (vol/vol) heat-inactivated fetal bovine serum and penicillin/streptomycin (both […]) are added prior to incubation at 37° C. for 6 days. Afterwards the medium containing the drug is removed, the cells are centrifuged in fresh medium or phosphate-buffered saline (pH 7.4). A tetrazolium dye, […]-2,5-diphenyl tetrazolium (MTT), is then added. (Mossman, T., J Immunol 65:55-63, 1983.) This dye forms a colored formazan product upon activation by mitochondrial reductases in viable cells. Typically, the formazan product is solubilized in acid-propanol or DMSO. The intensity of the color is proportional to viable cell numbers and this is quantitated by spectrophotometric absorbance at 570 nm on a micro ELISA plate reader. The results are calibrated in % control absorbance from untreated tumor cells. (Alley, et al., Cancer Res 48:589-601, 1988.)
In addition, the imexon analogs have also been tested in a multidrug-resistant (MDR) mouse L-1210 leukemia cell line.
L-1210 MDR Cells represent a multidrug-resistant cell line developed for resistance to the alkylating agent mitomycin C. (Dorr, et al., Biochem Pharmacol 36(19):3115-3120, 1987.) This cell line has the same general growth characteristics of the parental line, but is cross-resistant to numerous natural-product based anticancer agents. This includes anthracyclines such as doxorubicin (Adriamycin®) and vinca alkaloids such as vincristine or vinblastine.
as §2

SMILES: N#CC1CN1C(=O)Nc1ccc(Cl)cc1Cl (stereo not shown) [AMP 407, 2-Cyanoaziridine-1-[N-(2,4-dichlorophenyl)]carboxamide]
- IC50 (8226/S myeloma cells): 1.2 µg/mL (≈ 4.69 µM)
- Enhanced potency: decrease in IC50 against myeloma cell growth (8226/S myeloma cells; compared with imexon): > 40%
- IC50 [1]: 52.3 µg/mL (≈ 204 µM)
- IC50 (8226/I-R myeloma cells): 2.4 µg/mL (≈ 9.37 µM)
- Fold Resistance of IC50 R/IC50 's (8226/I-R myeloma cells): 2.0
- Fold Resistance of IC50 's (MDR/S) [2]: 0.16
- IC50 [2]: 8.4 µg/mL (≈ 32.8 µM)

SMILES: N#CC1CN1C(=O)Nc1ccc(C(F)(F)F)cc1 (stereo not shown) [AMP 416, 2-Cyanoaziridine-1-[N-(4-trifluorophenyl)]carboxamide]
- IC50 (8226/S myeloma cells): 2.1 µg/mL (≈ 8.23 µM)
- Potency relative to imexon (8226/S myeloma cells; myeloma cells): roughly equal potency to imexon
- IC50 [1]: 2 µg/mL (≈ 7.84 µM)
- Cross-resistance with imexon (8226/I-R myeloma cells): lack of significant (>50% IC50 change) cross-resistance with imexon; also recorded: no significant cross resistance
- IC50 (8226/I-R myeloma cells): 2 µg/mL (≈ 7.84 µM)
- Fold Resistance of IC50 R/IC50 's (8226/I-R myeloma cells): 0.95
- Fold Resistance of IC50 's (MDR/S) [2]: 0.9
- IC50 [2]: 1.8 µg/mL (≈ 7.05 µM)

SMILES: N#CC1CN1C(=O)Nc1ccccc1 (stereo not shown) [AMP 404, 2-Cyanoaziridine-1-(N-phenyl)carboxamide]
- IC50 (8226/S myeloma cells): 1 µg/mL (≈ 5.34 µM)
- IC50 [1]: 0.2 µg/mL (≈ 1.07 µM)
- Cross-resistance with imexon (8226/I-R myeloma cells): lack of significant (>50% IC50 change) cross-resistance with imexon
- IC50 (8226/I-R myeloma cells): 1.5 µg/mL (≈ 8.01 µM)
- Fold Resistance of IC50 R/IC50 's (8226/I-R myeloma cells): 1.5
- Fold Resistance of IC50 's (MDR/S) [2]: 10.5
- IC50 [2]: 2.1 µg/mL (≈ 11.2 µM)
